Test results reported in patent US20240016784A1, “Y BOX BINDING PROTEIN 1 INHIBITORS” (Oregon Health & Science University, priority 2020, published 2024).

Experiments:
[1] = test system: OVCAR8, SKOV3, and ID8 cells; test: Cell cycle analysis (propidium iodide, flow cytometry); type: cell-based; conditions: 12 h treatment; PI-stained OVCAR8, SKOV3, ID8
Procedure: (§1) To determine whether proliferation inhibition was the dominant factor driving the reduction in OC viability seen with AzP treatment, we used propidium iodide and annexin-FITC stains with flow cytometry to measure the distribution of cell cycle phases after treatment. […] Furthermore, in the Boyden chamber assay for cell migration, SU093 inhibited cell migration by 40-46% (1 μM, P<0.05) in different OC cell lines.
Cell cycle analysis: 30,000 OC cells were plated in each well of 12 well plates and incubated for 24 h. […] Both live and dead cells were collected via trypsinization and cell pellets were fixed with 70% ethanol. Fixed cells were stained using propidium iodide (PI) cocktail (80 μg/mL RNase A and 50 μg/mL PI in saponin-EDTA solution) and incubated at 4° C. overnight. Each sample was analyzed using a Guava® easyCyte™ Flow Cytometer (Millipore, Burlington, MA). FlowJo software calculated the % cells in each cell cycle phase.
(§2) FIG. 1A) Lead optimization of SU093 to obtain SU056. FIG. 1B) IC50 values of SU093 and SU056 on various ovarian cancer cells. Clonogenic survival of OC cells treated with SU093 or SU056. […] FIG. 1C) Representative colony formation from respective wells. FIG. 1D) Number of colonies formed after SU093 and SU056 treatment. […] FIG. 1F) Cell cycle distribution of propidium iodide (PI)-stained OVCAR8, SKOV3, and ID8 cells. […] FIG. 1G) Effects of SU093 and SU056 on apoptotic cell death analyzed by Annexin-FITC staining. […] FIG. 1H) Cell migration assay.

[2] = test system: SKOV-3; test: Clonogenic assay; type: cell-based, human; conditions: 0.5 & 1 μM
Procedure: (§3) We tested the relationship between AzPs dose and the viability of human ovarian cancer cell lines and the ID8 murine ovarian cancer cell line.
(§4) Clonogenic assay: 300 suspended OC cells were plated in each well of 12 well plates (Corning-Costar, #3598) and incubated for 24 h for attachment. The media was replaced after 24 h with media containing a respective concentration of the test compound and incubated for 5-8 days until visible colonies appeared in vehicle-treated wells. Cells were then washed and fixed with 2% paraformaldehyde, followed by washing and staining with 0.5% Crystal violet for 1 h. Cells were de-stained using DI water and allowed to dry. Colonies were counted under the microscope at 100× magnification.
as §2

[3] = test system: ovarian cancer cells; test: Apoptotic cell death assay (Annexin-FITC); type: cell-based; conditions: 24 h treatment; Annexin-FITC staining
Procedure: as §1
Apoptotic cell death assay: Cells were plated and treated as described in cell cycle analysis assay above. Treated cells were incubated for 24 h and both live and dead cells were collected. Cells were stained with Annexin V and PI using FITC Annexin V apoptosis detection kit (BD Pharmingen, San Jose, CA) by following the manufacturer's protocol. Guava® easyCyte™ Flow Cytometer was used to analyze the stained cells.
as §2

[4] = test system: OVCAR-8 and ID8 cells; test: Clonogenic assay; type: cell-based
Procedure: as §3, §4, §2

[5] = Liver toxicity parameters (ALT, AST, ALKP) in ID8 study; type: in vivo, C57BL/6 mice; conditions: 20 mg/kg daily IP, 42 days
Procedure: (§5) These promising results led us to test SU093 and SU056 in vivo. C57BL/6 mice were implanted with 2×10^6 firefly luciferase (luc+)-expressing ID-8 syngeneic ovarian cancer cells subcutaneously. Once the tumors reached 100 mm^3 in size, we began daily intraperitoneal treatment with SU093 and SU056 at 20 mg/kg (vehicle control 30% PEG-300 in saline). Tumor growth was monitored via bioluminescence imaging (IVIS).
(§6) In vivo xenograft model and drug efficacy study: All animal experiments were reviewed and approved by the Animal Care and Use Committee of Stanford University, CA, USA. Luciferase tagged ID8 (2×10^6) or OVCAR8 (5×10^6) cells were implanted into the right flank of 6-7-week-old female C57BL/6 mice and NOD/SCID mice, respectively. Respective treatment began after tumors grew to 100-200 mm^3 diameters. The ID8 syngeneic mice model was treated with a vehicle (30% PEG-300 in saline), 20 mg/kg SU093, and 20 mg/kg SU056 intraperitoneally (IP) daily for 42 days. At the end of treatment, blood was collected from each mouse and analyzed for liver toxicity parameters, including Alanine Aminotransferase (ALT), Aspartate Aminotransferase (AST), and Alkaline Phosphatase (ALKP). […]

[6] = test system: OC cell lines; test: Cell migration assay (Boyden chamber); type: cell-based; conditions: different OC cell lines, P<0.05
Procedure: as §1
Cell migration assay: 1×10^5 cells were plated in 60 mm cell culture dishes (Corning-Falcon, #353002) and incubated for 24 h. […] Cells were trypsinized and collected in a conical tube for each plate. Pellets of cells were resuspended, and live cells were counted using a hemocytometer and trypan blue staining. 40,000 live cells were then plated in the upper chamber of 8-micron transwell (Corning-Falcon, #353097) with 0.2% FBS media. The lower chamber contained 10% FBS complete media. […] Each transwell was washed, swiped for non-migrated cells and fixed using 75% ethanol. Fixed transwells were stained with 0.5% crystal violet for 1 h. De-stained transwell membranes were cut and mounted on a slide using DPX mounting media. Migrated cells were counted under the microscope at 100× magnification.
FIG. 1A) Lead optimization of SU093 to obtain SU056. […] FIG. 1G) Effects of SU093 and SU056 on apoptotic cell death analyzed by Annexin-FITC staining. […]

[7] = test system: ID-8 tumor xenograft; test: ID8 syngeneic ovarian tumor model, tumor growth and lung metastasis; type: in vivo, C57BL/6 mice
Procedure: as §5
Due to prior observation of a significant reduction in the migratory ability of OC cells treated with the two drugs (FIG. 1H), we also measured the effect of drug treatment on ovarian cancer metastases. At the end of above experiment, lungs were fixed and metastatic foci were counted under the dissecting microscope followed by H&E staining.
In vivo xenograft model and drug efficacy study: All animal experiments were reviewed and approved by the Animal Care and Use Committee of Stanford University, CA, USA. Luciferase tagged ID8 (2×10^6) or OVCAR8 (5×10^6) cells were implanted into the right flank of 6-7-week-old female C57BL/6 mice and NOD/SCID mice, respectively. Respective treatment began after tumors grew to 100-200 mm^3 diameters. The ID8 syngeneic mice model was treated with a vehicle (30% PEG-300 in saline), 20 mg/kg SU093, and 20 mg/kg SU056 intraperitoneally (IP) daily for 42 days. At the end of treatment, blood was collected from each mouse and analyzed for liver toxicity parameters, including Alanine Aminotransferase (ALT), Aspartate Aminotransferase (AST), and Alkaline Phosphatase (ALKP). OVCAR8 xenograft mice model was treated with vehicle (30% PEG-300 in saline), 5 mg/kg paclitaxel (once a week), 10 mg/kg SU056 (daily), a combination of paclitaxel (5 mg/kg, once a week) and SU056 (10 mg/kg, daily) for 4 weeks. Mice from both studies were euthanized, the tumor and different organs were collected and fixed in neutral buffered formalin and further processed for immunohistochemical analysis.
FIGS. 2A-2F. SU093 and SU056 inhibit mice ovarian ID-8 tumor xenograft growth in C57BL/6 mice. Mice were subcutaneously injected with ID-8 cells mixed with Matrigel in 1:1 ratio and the drug treatment started when tumors reached 100 mm^3. […] FIG. 2B) Tumor volume/mouse as a function of time. […] FIG. 2C) Tumor weight/mouse at the end of the study. […] FIG. 2D) Liver toxicity parameters at the end of 42 days showing no significant difference between control, SU093, and SU056. FIGS. 2E-2F) Lung metastasis assay. FIG. 2E) H&E staining of the lung (red arrow indicates the metastasis from ID8 xenograft). Scale bar, 250 μm. FIG. 2F) No. of lung metastatic nodules.

[8] = test system: YB-1 and MDR1; test: Immunoblotting of YB-1 and MDR1 in OVCAR8 cells; type: cell-based, human; conditions: paclitaxel 0.5 nM, SU056 0.5 μM, 12 h
Procedure: Immunoblotting: Once 70% confluency of OC cells plated in 100 mm cell culture was obtained, dishes were treated with a respective concentration of SU056 for a respective time. At the end of treatment, cells were collected and lysed using M-PER™ lysis solution (Thermo Scientific, #78503), supplemented with Halt protease and phosphatase inhibitor cocktail (Thermo Scientific, #78440). An equal amount (40-60 μg) of proteins was resolved using 8%/10%/12% SDS-PAGE gel electrophoresis. Proteins were then transferred onto a PVDF membrane (Bio-Rad, #162-01277). Blocked membranes were incubated with respective primary antibody solution prepared in 5% nonfat milk TPBS at 4° C. overnight with gentle rocking. Primary antibody-probed membranes were washed and probed with respective HRP-conjugated secondary antibody. Proteins were detected using Immobilon® Crescendo Western HRP Substrate (Millipore, Germany) and visualized on an IVIS Lumina Imaging System (Perkin Elmer, Waltham, MA). […]

[9] = test system: OVCAR8 OC tumors; test: OVCAR8 xenograft combination study; type: in vivo, NOD-SCID mice; conditions: SU056 10 mg/kg daily, paclitaxel 5 mg/kg weekly, intraperitoneal, 28 days
Procedure: In a pharmacokinetics study in vivo, injection of 20 mg/kg SU056 led to a maximum serum concentration of 28.19 μg/mL with a T1/2 of ˜45 min. We then tested the synergism of paclitaxel and SU056 co-treatment in vivo in NOD-SCID mice implanted with OVCAR8 OC tumors as described above. Mice were given daily treatment of SU056 (10 mg/kg) and weekly treatment of paclitaxel (5 mg/kg) were administered intraperitoneally. […] This likely resulted from decreased paclitaxel efflux from OVCAR8 cells in the presence of SU056.
as §6

SMILES	cell cycle distribution [1]	colony formation, effect on SKOV-3 [2]	apoptotic cell death [3]	OC colony formation [4]	impact on blood chemistry indicators (AST, ALT, alkaline phosphatase) [5]	inhibition at 1 µM [6] [%]	reduction in tumor weight ([7]; 20 mg/kg daily IP, at 42 days) [fold]	tumor progression vs vehicle control ([7]; 20 mg/kg daily intraperitoneal, bioluminescence imaging)	expression of YB-1 and MDR1 (Western blot) [8]	OC tumor growth [9]
COc1ccc2c(c1)N(CCO)C1=C(C(=O)OC1)C2c1cccc(F)c1 (stereo not shown) [SU093, 9-(3-fluorophenyl)-4-(2-hydroxyethyl)-6-methoxy-4,9-dihydrofuro[3,4-b]quinolin-1(3H)-one, reference compound]	G1 phase arrest	moderately affect	induce apoptotic cell death	decreased OC colony formation in a dose-dependent and significant manner	no significant impact	40 to 46	1.5	significantly delay the tumor progression	–	–
CC(=O)O[C@H]1C(=O)[C@@]2(C)[C@H]([C@H](OC(=O)c3ccccc3)[C@]3(O)C[C@H](OC(=O)[C@H](O)[C@@H](NC(=O)c4ccccc4)c4ccccc4)C(C)=C1C3(C)C)[C@]1(OC(C)=O)CO[C@@H]1C[C@@H]2O [paclitaxel, reference compound]	–	–	–	–	–	–	–	–	upregulate the expression of YB-1 and MDR1	significant reduction in OC tumor growth
